Reference: patent publication US8513271B2, “Pyrimidine compounds as delta opioid receptor modulators” (Janssen Pharmaceutica, NV, priority 2009, dated 2013)
Where two headings read alike, the source gives them in different places.

Columns and labels:
[1] = target: T1, mu opioid receptor (Rattus norvegicus, UniProt P33535); experiment: Rat brain mu opioid receptor binding assay; conditions: rat forebrain, [3H]DAMGO ligand
T1 construct: the forebrains were homogenized in Tris buffer in a Teflon®-glass homogenizer; from tissue; host or cells: forebrain of male Wistar rats, particulate (membrane) preparation
T1 sequence (P33535 whole entry): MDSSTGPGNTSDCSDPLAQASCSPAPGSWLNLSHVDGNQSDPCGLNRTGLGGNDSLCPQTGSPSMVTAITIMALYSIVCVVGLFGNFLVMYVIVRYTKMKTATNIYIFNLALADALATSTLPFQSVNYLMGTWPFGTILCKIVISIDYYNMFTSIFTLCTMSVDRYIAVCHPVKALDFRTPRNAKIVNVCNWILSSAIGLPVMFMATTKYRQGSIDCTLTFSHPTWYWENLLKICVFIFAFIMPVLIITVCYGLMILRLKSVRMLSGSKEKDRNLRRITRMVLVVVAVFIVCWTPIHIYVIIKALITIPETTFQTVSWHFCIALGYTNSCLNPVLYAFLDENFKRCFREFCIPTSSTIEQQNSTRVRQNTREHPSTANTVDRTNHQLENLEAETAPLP

[2] = target: T2, delta opioid receptor (Rattus norvegicus, UniProt P33533); experiment: Rat brain delta opioid receptor binding assay; conditions: rat forebrain
T2 construct: the forebrains were homogenized in Tris buffer in a Teflon®-glass homogenizer; from tissue; host or cells: forebrain of male Wistar rats, particulate (membrane) preparation
T2 sequence (P33533 whole entry): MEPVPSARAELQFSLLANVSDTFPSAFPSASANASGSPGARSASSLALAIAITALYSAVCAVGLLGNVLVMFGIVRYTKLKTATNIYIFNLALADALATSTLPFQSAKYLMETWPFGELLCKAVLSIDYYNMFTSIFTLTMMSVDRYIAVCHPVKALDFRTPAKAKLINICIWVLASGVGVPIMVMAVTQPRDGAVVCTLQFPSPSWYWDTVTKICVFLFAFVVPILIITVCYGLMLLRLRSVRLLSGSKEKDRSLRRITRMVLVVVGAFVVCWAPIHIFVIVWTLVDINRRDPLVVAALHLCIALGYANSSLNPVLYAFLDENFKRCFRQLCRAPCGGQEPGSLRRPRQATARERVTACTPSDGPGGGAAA

[3] = target: T3, delta opioid receptor (Mus musculus, UniProt P32300); experiment: [35S]GTPγS binding assay in NG108-15 cell membranes (delta opioid functional assay), 200 nM screen; format: biochemical; conditions: NG108-15 cell membranes; for EC50: averages if tested more than once; for GTPγS δ-opioid receptor Rel Efficacy: relative efficacy from dose response
T3 construct: NG108-15 cell membranes were purchased from Applied Cell Sciences (Rockville, Md.); host or cells: NG108-15 cell membranes
T3 sequence (P32300 whole entry): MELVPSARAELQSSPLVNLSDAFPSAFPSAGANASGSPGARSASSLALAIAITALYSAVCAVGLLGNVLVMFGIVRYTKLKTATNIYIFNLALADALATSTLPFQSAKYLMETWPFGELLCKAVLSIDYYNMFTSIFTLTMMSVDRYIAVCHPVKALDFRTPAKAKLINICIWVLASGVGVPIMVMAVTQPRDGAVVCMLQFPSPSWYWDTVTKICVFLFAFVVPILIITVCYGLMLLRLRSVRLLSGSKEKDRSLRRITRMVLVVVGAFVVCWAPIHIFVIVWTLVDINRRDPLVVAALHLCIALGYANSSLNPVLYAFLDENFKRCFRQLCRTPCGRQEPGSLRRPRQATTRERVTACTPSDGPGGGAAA

[4] = δ-binding (Naltrindole ligand) Ki, [3H]naltrindole ligand
[5] = [3H]naltrindole ligand, read-out: δ-binding (Naltrindole ligand) Ki
[6] = read-out: GTPγS δ-opioid receptor EC50
[7] = [3H]DPDPE ligand, read-out: δ-binding (DPDPE ligand) Ki

SMILES	Ki ([1]; read-out: μ-binding Ki)	Ki [2, 4]	Ki [2, 5]	EC50 [3, 6]	further results
COc1ccc(Oc2nc(-c3ccoc3)ncc2NC[C@@H]2CCCN2)cc1 [Cpd 10]	2000 nM	34 nM	–	–	–
COc1ccc(Oc2nc(-c3ccsc3)ncc2NC[C@@H]2CCCN2)cc1 [Cpd 9]	2970 nM	–	1 nM	–	–
COc1ccc(Oc2nc(-c3cnc(N(C)C)nc3)ncc2NC[C@@H]2CCCN2)cc1 [Cpd 82]	1050 nM	28 nM	–	–	–
Cc1nc2ccc(Oc3nc(-c4cncc(C#N)c4)ncc3NC[C@@H]3CCCN3)cc2s1 [Cpd 90]	–	9 nM	–	0.923 µM	–
COc1ccc(Oc2nc(-c3cccc(N)c3)ncc2NC[C@@H]2CCCN2)cc1 [Cpd 45]	812 nM	–	11 nM	–	–
COc1ccc(Oc2nc(-c3ccc4ccccc4c3)ncc2NC[C@@H]2CCCN2)cc1 [Cpd 6]	9010 nM	–	116 nM	–	–
COc1ccc(Oc2nc(-c3cccc4nc(C)ccc34)ncc2NC[C@@H]2CCCN2)cc1 [Cpd 18]	2240 nM	–	172 nM	–	–
COc1ccc(Oc2nc(-c3cccc(OC)c3)ncc2NC[C@@H]2CCCN2)cc1 [Cpd 3]	2340 nM	–	–	–	Ki [2, 7]: 142 nM
COc1ccc(Oc2nc(-c3cncnc3)ncc2NC[C@@H]2C[C@H](F)CN2)cc1 [Cpd 89]	–	10 nM	–	1.31 µM	–
COc1ccc(Oc2nc(-c3cccc([N+](=O)[O-])c3)ncc2NC[C@@H]2CCCN2)cc1 [Cpd 29]	2660 nM	86 nM	–	–	–
COc1ccc(Oc2nc(-c3cncc(C#N)c3)ncc2NC2CCC(N)CC2)cc1 (stereo not shown) [Cpd 298]	–	4 nM	–	–	EC50 ([3]; GTPγS δ-opioid receptor EC50 (μM)): 0.087 µM; GTPγS δ-opioid receptor Rel Efficacy [3]: 1.012
COc1ccc(Oc2nc(-c3cncc(C#N)c3)ncc2NCC2COCCN2)cc1 (racemic) [Cpd 279]	–	–	5 nM	0.17 µM	GTPγS δ-opioid receptor Rel Efficacy [3]: 1.004
COc1ccc(Oc2nc(-c3cncnc3)ncc2NC[C@H]2CCCC[C@@H]2N)cc1 [Cpd 300]	–	–	21 nM	1.05 µM	GTPγS δ-opioid receptor Rel Efficacy [3]: 0.968
COc1ccc(Oc2nc(-c3ccc4sc5ccccc5c4c3)ncc2NC[C@@H]2CCCN2)cc1 [Cpd 21]	2390 nM	–	201 nM	–	–
COc1ccc(Oc2nc(-c3cccc(C(N)=O)c3)ncc2NC[C@@H]2CCCN2)cc1 [Cpd 30]	1090 nM	3 nM	–	–	–
COc1ccc(Oc2nc(-c3cnc(OC)nc3)ncc2NC[C@@H]2CCCN2)cc1 [Cpd 53]	591 nM	0.2 nM	–	–	–
COc1ccc(Oc2nc(-c3cc4ccccc4s3)ncc2NC[C@@H]2CCCN2)cc1 [Cpd 49]	3560 nM	–	103 nM	–	–
COc1ccc(Oc2nc(-c3cnc(O)nc3O)ncc2NC[C@@H]2CCCN2)cc1 [Cpd 27]	15500 nM	–	2570 nM	–	–
FC(F)(F)Oc1ccc(Oc2nc(-c3cccnc3)ncc2NC[C@@H]2CCCN2)cc1 [Cpd 11]	3080 nM	5 nM	–	–	–
COc1ccc(Oc2nc(-c3cncc(C#N)c3)ncc2NCC2CNCCO2)cc1 (stereo not shown) [Cpd 275]	–	46 nM	–	0.922 µM	–
CC(=O)Nc1ccc(Oc2nc(-c3cccnc3)ncc2NC[C@@H]2CCCN2)cc1 [Cpd 13]	5570 nM	–	2 nM	–	–
COc1ccc(Oc2nc(-c3cccc(C(F)(F)F)c3)ncc2NC[C@@H]2CCCN2)cc1 [Cpd 50]	597 nM	55 nM	–	–	–

SMILES	Ki ([1]; read-out: μ-binding Ki)	Ki [2, 4]	Ki [2, 5]	EC50 [3, 6]	further results
COc1ccc(Oc2nc(-c3ccc4[nH]ccc4c3)ncc2NC[C@@H]2CCCN2)cc1 [Cpd 34]	–	15 nM	–	–	Ki ([1]; μ-binding Ki): 15 nM
FC(F)Oc1ccc(Oc2nc(-c3cncnc3)ncc2NC[C@@H]2CCCN2)cc1 [Cpd 111]	–	9 nM	–	0.491 µM	–
COc1ccc(Oc2nc(-c3ccc(NC(C)=O)cc3)ncc2NC[C@@H]2CCCN2)cc1 [Cpd 43]	523 nM	4 nM	–	–	–
COc1cccc(Oc2nc(-c3cccnc3)ncc2NC[C@@H]2CCCN2)c1 [Cpd 100]	–	33 nM	–	1.62 µM	–
COc1ccc(Oc2nc(-c3cnc(N4CCOCC4)nc3)ncc2NC[C@@H]2CCCN2)cc1 [Cpd 83]	673 nM	14 nM	–	–	–
NC(=O)c1ccc(Oc2nc(-c3cccnc3)ncc2NC[C@@H]2CCCN2)cc1 [Cpd 12]	4520 nM	18 nM	–	–	–
COc1ccc(Oc2nc(-c3cccc(NC(C)=O)c3)ncc2NC[C@@H]2CCCN2)cc1 [Cpd 42]	1230 nM	16 nM	–	–	–
COc1ccc(Oc2nc(-c3cnc(SC)nc3)ncc2NC[C@@H]2CCCN2)cc1 [Cpd 52]	539 nM	0.4 nM	–	–	–
COc1ccccc1Oc1nc(-c2cccnc2)ncc1NC[C@@H]1CCCN1 [Cpd 40]	7640 nM	93 nM	–	–	–
Oc1ccc(Oc2nc(-c3ccc(O)nc3)ncc2NCC2CCCN2)cc1 (stereo not shown) [Cpd 75]	5120 nM	36 nM	–	–	–
COc1ccc(Oc2nc(-c3cccc(O)c3)ncc2NC[C@@H]2CCCN2)cc1 [Cpd 15]	416 nM	0.1 nM	–	–	–
Fc1cncc(-c2ncc(NC[C@@H]3CCCN3)c(Oc3ccc(OC(F)F)cc3)n2)c1 [Cpd 112]	–	–	6 nM	0.33 µM	GTPγS δ-opioid receptor Rel Efficacy [3]: 1.082
COc1ccc(Oc2nc(-c3cncc(C#N)c3)ncc2NCCN)cc1 [Cpd 293]	–	8 nM	–	0.317 µM	–
COc1ccc(Oc2nc(-c3cncnc3)ncc2NC[C@@H]2CC(F)(F)CN2)cc1 [Cpd 79]	> 10000 nM	95 nM	–	–	–
COc1ccc(Oc2nc(-c3cnc(N)nc3)ncc2NC[C@@H]2CCCN2)cc1 [Cpd 81]	569 nM	–	355 nM	–	–
Cc1nc2ccc(Oc3nc(-c4cncnc4)ncc3NC[C@@H]3CCCN3)cc2s1 [Cpd 91]	–	22 nM	–	> 10 µM	–
COc1ccc(Oc2nc(-c3ccccc3OC)ncc2NC[C@@H]2CCCN2)cc1 [Cpd 4]	> 10000 nM	–	–	–	Ki [2, 7]: 2220 nM
CCN(CC)C(=O)c1cccc(-c2ncc(NC[C@@H]3CCCN3)c(Oc3ccc(OC)cc3)n2)c1 [Cpd 31]	837 nM	31 nM	–	–	–
COc1ccc(Oc2nc(-c3cnc4[nH]ccc4c3)ncc2NC[C@@H]2CCCN2)cc1 [Cpd 77]	313 nM	–	154 nM	–	–
COc1ccc(Oc2nc(-c3cccc(C#N)c3)ncc2NC[C@@H]2CCCN2)cc1 [Cpd 28]	295 nM	6.1 nM	–	–	–
COc1ccc(Oc2nc(-c3cccc4cccnc34)ncc2NC[C@@H]2CCCN2)cc1 [Cpd 17]	3080 nM	30 nM	–	–	–
CCCOc1ccc(Oc2nc(-c3cncnc3)ncc2NC[C@@H]2CCCN2)cc1 [Cpd 114]	–	8 nM	–	0.306 µM	–

SMILES	Ki ([1]; read-out: μ-binding Ki)	Ki [2, 4]	Ki [2, 5]	EC50 [3, 6]	further results
COc1ccc(Oc2nc(-c3cc(C)cc(C)c3)ncc2NC[C@@H]2CCCN2)cc1 [Cpd 92]	–	35 nM	–	0.47 µM	–
COc1ccc(Oc2nc(-c3ccc(-c4ccccc4)cc3)ncc2NC[C@@H]2CCCN2)cc1 [Cpd 19]	8080 nM	–	201 nM	–	–
CCCOc1ccc(Oc2nc(-c3cncc(F)c3)ncc2NC[C@@H]2CCCN2)cc1 [Cpd 115]	–	52 nM	–	2.71 µM	–
COc1ccc(Oc2nc(-c3ccc(C#N)nc3)ncc2NC[C@@H]2CCCN2)cc1 [Cpd 95]	–	11 nM	–	0.708 µM	–
COc1ccc(Oc2nc(-c3cncnc3)ncc2NCC2CNCCO2)cc1 (stereo not shown) [Cpd 277]	–	–	32 nM	1.09 µM	GTPγS δ-opioid receptor Rel Efficacy [3]: 1.012
COc1ccc(Oc2nc(-c3nccs3)ncc2NC[C@@H]2CCCN2)cc1 [Cpd 48]	862 nM	24 nM	–	–	–
COc1ccc(Oc2nc(-c3cnc(N4CCN(C)CC4)nc3)ncc2NC[C@@H]2CCCN2)cc1 [Cpd 84]	338 nM	–	16 nM	–	–
COc1ccc(-c2ncc(NC[C@@H]3CCCN3)c(Oc3ccc(F)cc3)n2)cn1 [Cpd 37]	> 10000 nM	10 nM	–	–	–
COc1ccc(Oc2nc(-c3cc(F)cc(F)c3)ncc2NC[C@@H]2CCCN2)cc1 [Cpd 55]	2050 nM	21 nM	–	–	–
COc1ccc(Oc2nc(-c3c(C)noc3C)ncc2NC[C@@H]2CCCN2)cc1 [Cpd 62]	1920 nM	–	544 nM	–	–
COc1c(F)cc(Oc2nc(-c3cncc(C#N)c3)ncc2NC[C@@H]2CCCN2)cc1F [Cpd 96]	–	35 nM	–	0.749 µM	–
Fc1ccc(Oc2nc(-c3cccnc3)ncc2NC[C@@H]2CCCN2)cc1 [Cpd 36]	4770 nM	3 nM	–	–	–
COc1ccc(Oc2nc(-c3ccc(OC)cc3)ncc2NC[C@@H]2CCCN2)cc1 [Cpd 1]	3230 nM	–	–	–	Ki [2, 7]: 363 nM
COc1ccc(-c2ncc(NC[C@@H]3CCCN3)c(Oc3ccccc3OC)n2)cn1 [Cpd 39]	8990 nM	67 nM	–	–	–
COc1ccc(Oc2nc(-c3cc(F)cc(OC)c3)ncc2NC[C@@H]2CCCN2)cc1 [Cpd 70]	2250 nM	47 nM	–	–	–
COc1ccc(-c2ncc(NC[C@@H]3CCCN3)c(Oc3ccc(N)cc3)n2)cn1 [Cpd 44]	2690 nM	–	4 nM	–	–
COc1ccc(Oc2nc(-c3cncc(F)c3)ncc2NC[C@@H]2CCCN2)c(F)c1F [Cpd 102]	–	3 nM	–	0.255 µM	–
COc1ccc(Oc2nc(-c3cncnc3)ncc2NC[C@@H]2CCCN2)c(F)c1F [Cpd 103]	–	11 nM	–	0.311 µM	–
COc1ccc(Oc2nc(-c3cncc(C#N)c3)ncc2NC[C@H](C)N)cc1 [Cpd 292]	–	2 nM	–	0.363 µM	–
COc1c(F)cc(Oc2nc(-c3cncnc3)ncc2NC[C@@H]2CCCN2)cc1F [Cpd 97]	–	39 nM	–	7.12 µM	–
Cc1nc2ccc(Oc3nc(-c4cncc(C#N)c4)ncc3NC[C@@H]3CCCN3)cc2s1 [Cpd 88]	–	–	14 nM	0.478 µM	GTPγS δ-opioid receptor Rel Efficacy [3]: 0.538
COc1ccc(Oc2nc(-c3cncc(C#N)c3)ncc2NC[C@H]2COCCN2)cc1 [Cpd 280]	–	–	6 nM	0.181 µM	GTPγS δ-opioid receptor Rel Efficacy [3]: 0.998
